Patent US20170119833A1, “ACANTHOSPERMUM HISPIDUM COMPOSITION FOR THE TREATMENT OF CANCER AND METHODS FOR ITS MANUFACTURE” (priority 2014, published 2017)

Key:
Format in all cases: in vivo, Swiss albino mice
DAL [1] = assay: Dead cell count of DAL ascitic fluid in mice
Procedure: (§1) The extracts used were in the form of suspension with tween-20 (one part by volume) and distilled water (two parts by volume). The prepared extracts were also used for further studies. Animals used for studies were Swiss albino mice. Six experiments were carried for each plant extract.
(§2) After development of tumor the drug treatment was given on the 9th day and the 18th day post tumor inoculation. The peritoneal fluid was collected once on the 11th day and 20th day from each mouse and the following parameters were examined in antitumor assessment:
Ascitic fluid for cell cytology, specifically dead cell count and histopathology.
(§3) Statistical analysis: The data for anti-tumor activity was analyzed by one-way ANOVA followed by Dunnett's ‘t’ test. P<0.05 was considered statistically significant.

DAL [2] = assay: Hematological parameters in DAL-bearing mice; conditions: 5-FU 12.5 mg/kg p.o., extracts 300 mg/kg p.o.
Procedure: The extracts used were in the form of suspension with tween-20 (one part by volume) and distilled water (two parts by volume). The prepared extracts were also used for further studies. Animals used for studies were Swiss albino mice. Six experiments were carried for each plant extract. After development of tumor the drug treatment was given on the 9th day and the 18th day post tumor inoculation. […] Hematological parameters, such as WBC, RBC, Hb, differential Leucocyte count; Statistical analysis: The data for anti-tumor activity was analyzed by one-way ANOVA followed by Dunnett's ‘t’ test. P<0.05 was considered statistically significant.

DAL [3] = assay: Mean survival time (MST) in DAL-bearing mice
Procedure: as §1, §2
Mean Survival time (MST);
as §3

DAL [4] = assay: Body weight (tumor volume) of DAL-bearing mice; conditions: for body weight: mean of six experiments
Procedure: as §1, §2
Body weight (tumor volume). All parameters were examined with standard procedures.

## O=c1[nH]cc(F)c(=O)[nH]1 [5-FU, 5-Fluorouracil]
DAL [1]; 11th day
  % of dead cells: 35%
  % protection against tumor: 52%
DAL [1]; 20th day
  % of dead cells: 51%
  % protection against tumor: 54.54%
DAL [2]; Day 11
  Hb g/dl ± SEM: 5.8 ± 0.98 g/dL
  Lymphocytes ± SEM: 48 ± 0.41
  Monocytes: 2
  Neutrophils ± SEM: 56 ± 0.82
  RBC × 10^6 ± SEM: 2.20 ± 0.08 × 10^6
DAL [2]; Day 20
  Hb g/dl ± SEM: 7.2 ± 0.04 g/dL
  Lymphocytes ± SEM: 54.98 ± 0.81
  Monocytes: 2
  Neutrophils ± SEM: 34.98 ± 0.03
  RBC × 10^6 ± SEM: 2.61 ± 0.03 × 10^6
  WBC ± SEM: 11,600 ± 2.03
DAL [3]; DAL-bearing mice
  No. of Days Alive ± SEM: 26 ± 0.24 days
DAL [3]; tumor control (DAL) = 100
  Mean Survival time (%): 110%
DAL [4]; 20th day post-tumor inoculation
  % increase in body weight on 20th day post-tumor inoculation: 32.08%
DAL [4]; day 9 post tumor inoculation
  body weight: 22.33 grams
DAL [4]; day 10 post tumor inoculation
  body weight: 22.33 grams
DAL [4]; day 11 post tumor inoculation
  body weight: 22.66 grams
DAL [4]; day 12 post tumor inoculation
  body weight: 23 grams
DAL [4]; day 13 post tumor inoculation
  body weight: 26.33 grams
DAL [4]; day 14 post tumor inoculation
  body weight: 27 grams
DAL [4]; day 15 post tumor inoculation
  body weight: 28.66 grams
DAL [4]; day 18 post tumor inoculation
  body weight: 30 grams
DAL [4]; day 20 post tumor inoculation
  body weight: 30 grams
DAL [4]; day 21 post tumor inoculation
  body weight: 30 grams
DAL [4]; day 24 post tumor inoculation
  body weight: 30 grams
